≈ marks a conversion by molar mass, not a printed value. Counter-ions that a name gives are not always drawn.
Columns and labels:
HeLa.S3 cell [1] = assay: Enhancement of cytocidal effect: colony formation of HeLa S3 cells, known carcinostatic drug added simultaneously with the compound of the present invention, 7 days; format: cell-based, human; conditions: for enhancement of the cytocidal effect of a carcinostatic drug: conclusion in words from the figures of Table 2 (CPM by the S9 mix protocol)
Description: Effect of the simultaneous use of a known carcinostatic agent and the compound (I) (Enhancement of cytocidal effect) • (1) Experimental material and procedure • ① Cell: Epithelical cell from human uterocervical cancer, HeLa.S3 cell • ② Cultivation: The cell was cultivated using a culture fluid obtained by adding 10 parts of fetal calf serum to 90 parts of Eagles Minimum Essential Medium in an incuvator having a carbon dioxide concentration controlled to 5% at 37°C. • ③ Drug: The compound of the present invention was added as a solution in dimethyl sulfoxide(DMSO) of a final DMSO concentration of 0.1% to the culture fluid. The clinical injections as shown in Table 1 were added to the culture fluid as a known carcinostatic drug. […] After the cultivation for 7 days, the cells were fixed with methanol and subjected to Giemsa's staining, followed by calculation of the number of colonies containing at least 20 cells under a stereomicroscope. The concentration (ng/mℓ) of the carcinostatic drug required to decrease the ratio of the number of colonies of a treated group to that of an untreated group (control) to 50% were determined and are shown as "IC50".

[2] = Toxicological test, oral administration for 14 days; format: in vivo; conditions: female ICR mice, orally, 14 days, 40, 200 or 400 mg/kg/day
Description: The compound of the present invention, 3,7,11,15-tetramethyl-2,4,6,10,14-hexadecapentaenoic acid, was administered orally to each group consisting of six female ICR mice for 14 days at a dosage of 40, 200 or 400 mg/kg/day, respectively, to observe changes in the weight, the mortality or the like.

HeLa.S3 cell [3] = assay: cells; conditions: Homo sapiens
Description: The clinical injections as shown in Table 1 were added to the culture fluid as a known carcinostatic drug. [formula] • ④ Experimental procedure: 150 epithelical cells from human uterocervical cancer (HeLaS3 cell) were planted in each plastic dish of a diameter of 60 mm. […] After the cultivation for 7 days, the cells were fixed with methanol and subjected to Giemsa's staining, followed by calculation of the number of colonies containing at least 20 cells under a stereomicroscope. The concentration (ng/mℓ) of the carcinostatic drug required to decrease the ratio of the number of colonies of a treated group to that of an untreated group (control) to 50% were determined and are shown as "IC50".

[4] = Homo sapiens, HeLa S3, compound of the present invention 0 M; listed as 1): based on case where both compound and drug are 0, read-out: IC50 (ng/ml) 0 a)
[5] = Homo sapiens, HeLa S3, compound of the present invention 0 M; listed as 2): based on case where drug is 0 at the same compound concentration, read-out: IC50 (ng/ml) 0 a)
[6] = Homo sapiens, HeLa S3, compound of the present invention 3.2×10^-5 M; listed as 1): based on case where both compound and drug are 0, read-out: IC50 (ng/ml) 3.2×10^-5 d)
[7] = Homo sapiens, HeLa S3, compound of the present invention 3.2×10^-5 M; listed as 2): based on case where compound is 3.2×10^-5 M and drug is 0, read-out: IC50 (ng/ml) 3.2×10^-5 d)
[8] = Homo sapiens, HeLa S3, compound of the present invention 10^-5 M; listed as 1): based on case where both compound and drug are 0, read-out: IC50 (ng/ml) 10^-5 c)
[9] = Homo sapiens, HeLa S3, compound of the present invention 10^-5 M; listed as 2): based on case where compound is 10^-5 M and drug is 0, read-out: IC50 (ng/ml) 10^-5 c)
[10] = Homo sapiens, HeLa S3, compound of the present invention 10^-6 M; listed as 1): based on case where both compound and drug are 0, read-out: IC50 (ng/ml) 10^-6 b)
[11] = Homo sapiens, HeLa S3, compound of the present invention 10^-6 M; listed as 2): based on case where compound is 10^-6 M and drug is 0, read-out: IC50 (ng/ml) 10^-6 b)

Molecule	enhancement of the cytocidal effect of a carcinostatic drug (HeLa.S3 cell [1])	IC50 (HeLa.S3 cell [1]; [4]) [ng/mL]	IC50 (HeLa.S3 cell [1]; [5]) [ng/mL]	IC50 (HeLa.S3 cell [1]; [6]) [ng/mL]	IC50 (HeLa.S3 cell [1]; [7]) [ng/mL]	IC50 (HeLa.S3 cell [1]; [8]) [ng/mL]	IC50 (HeLa.S3 cell [1]; [9]) [ng/mL]	IC50 (HeLa.S3 cell [1]; [10]) [ng/mL]	IC50 (HeLa.S3 cell [1]; [11]) [ng/mL]	other results
Cc1c(N)nc([C@H](CC(N)=O)NC[C@H](N)C(N)=O)nc1C(=O)N[C@H](C(=O)N[C@H](C)[C@@H](O)[C@H](C)C(=O)N[C@H](C(=O)NCCc1nc(-c2nc(C(=O)NCCCN[C@@H](C)c3ccccc3)cs2)cs1)[C@@H](C)O)[C@@H](O[C@@H]1O[C@@H](CO)[C@@H](O)[C@H](O)[C@@H]1O[C@H]1O[C@H](CO)[C@@H](O)[C@H](OC(N)=O)[C@@H]1O)c1c[nH]cn1.O=S(=O)(O)O [PEP, pepleomycin sulfate]	particularly remarkable	–	–	–	–	–	–	–	–	–
COC(COC(N)=O)C1=C(N2CC2)C(=O)C(C)=C(N2CC2)C1=O (centres unmarked) [CQ, carboquone]	particularly remarkable	0.339	0.339	0.076	0.131	0.242	0.275	0.273	0.253	–
bleomycin hydrochloride [BLM]	particularly remarkable	–	–	–	–	–	–	–	–	–
COc1cccc2c1C(=O)c1c(O)c3c(c(O)c1C2=O)C[C@@](O)(C(=O)CO)C[C@@H]3O[C@H]1C[C@H](N)[C@H](O)[C@H](C)O1 [ADM, doxorubicin hydrochloride]	–	3.79	3.79	1.88	3.14	2.43	4.15	3.1	3.51	–
O=c1[nH]cc(F)c(=O)[nH]1 [5-FU, fluorouracil]	particularly remarkable	648	648	267	347	329	369	375	388	–
Cc1ncc(CNC(=O)N(CCCl)N=O)c(N)n1 [ACNU, minustine hydrochloride]	–	135	135	102	136	146	150	143	147	–
CO[C@@]12[C@H](COC(N)=O)C3=C(C(=O)C(C)=C(N)C3=O)N1C[C@@H]1N[C@@H]12 [MMC, mitomycin]	particularly remarkable	1.5	1.5	0.4	0.84	0.74	0.82	1.05	1.06	–
CC(C)=CCCC(C)=CCCC(C)=CC=CC(C)=CC(=O)O [compound of the present invention, 3,7,11,15-tetramethyl-2,4,6,10,14-hexadecapentaenoic acid]	synergisticly enhances the cytocidal effect of a carcinostatic drug	–	–	–	–	–	–	–	–	mortality [2]: No mice died
CC[C@]1(O)C[C@H]2CN(CCc3c([nH]c4ccccc34)[C@@](C(=O)OC)(c3cc4c(cc3OC)N(C=O)[C@H]3[C@@](O)(C(=O)OC)[C@H](OC(C)=O)[C@]5(CC)C=CCN6CC[C@]43[C@@H]65)C2)C1 [VCR, vincristine sulfate]	–	5.5	5.5	2.63	5.65	6.38	7.7	7.44	7.45	–
O=P1(N(CCCl)CCCl)NCCCO1 (centres unmarked) [CPM, cyclophosphamide]	particularly remarkable	–	–	–	–	–	–	–	–	IC50 (HeLa.S3 cell [3]; HeLa S3, read-out: IC50 (ng/ml) 0 a), S9 mix protocol; compound of the present invention 0 M; listed as 1): based on case where both compound and drug are 0): 4210 ng/mL (≈ 16.1 µM); IC50 (HeLa.S3 cell [3]; HeLa S3, read-out: IC50 (ng/ml) 0 a), S9 mix protocol; compound of the present invention 0 M; listed as 2): based on case where drug is 0 at the same compound concentration): 4210 ng/mL (≈ 16.1 µM); IC50 (HeLa.S3 cell [3]; HeLa S3, read-out: IC50 (ng/ml) 3.2×10^-5 d), S9 mix protocol; compound of the present invention 3.2×10^-5 M; listed as 1)): 1220 ng/mL (≈ 4.69 µM); IC50 (HeLa.S3 cell [3]; HeLa S3, read-out: IC50 (ng/ml) 3.2×10^-5 d), S9 mix protocol; compound of the present invention 3.2×10^-5 M; listed as 2)): 2300 ng/mL (≈ 8.82 µM); IC50 (HeLa.S3 cell [3]; HeLa S3, read-out: IC50 (ng/ml) 10^-5 c), S9 mix protocol; compound of the present invention 10^-5 M; listed as 1)): 1330 ng/mL (≈ 5.08 µM); IC50 (HeLa.S3 cell [3]; HeLa S3, read-out: IC50 (ng/ml) 10^-5 c), S9 mix protocol; compound of the present invention 10^-5 M; listed as 2)): 1970 ng/mL (≈ 7.56 µM); IC50 (HeLa.S3 cell [3]; HeLa S3, read-out: IC50 (ng/ml) 10^-6 b), S9 mix protocol; compound of the present invention 10^-6 M; listed as 1)): 3360 ng/mL (≈ 12.9 µM); IC50 (HeLa.S3 cell [3]; HeLa S3, read-out: IC50 (ng/ml) 10^-6 b), S9 mix protocol; compound of the present invention 10^-6 M; listed as 2)): 3160 ng/mL (≈ 12.1 µM)
Nc1ccn([C@@H]2O[C@H](CO)[C@@H](O)[C@@H]2O)c(=O)n1 [Ara-C, cytarabine]	–	10.9	10.9	6.25	11.6	11.4	12.4	11.9	12	–
S=P(N1CC1)(N1CC1)N1CC1 [Thio-TEPA, Thio TEPA]	–	–	–	–	–	–	–	–	–	IC50 (HeLa.S3 cell [1]; Homo sapiens, HeLa S3, read-out: IC50 (ng/ml) 0 a), compound of the present invention 0 M; 1): based on case where both compound and drug are 0): 311 ng/mL; IC50 (HeLa.S3 cell [1]; Homo sapiens, HeLa S3, read-out: IC50 (ng/ml) 0 a), compound of the present invention 0 M; listed as 2): based on case where drug is 0 at the same compound concentration): 311 ng/mL; IC50 (HeLa.S3 cell [1]; Homo sapiens, HeLa S3, read-out: IC50 (ng/ml) 3.2×10^-5 d), compound of the present invention 3.2×10^-5 M; 2): based on case where compound is 3.2×10^-5 M and drug is 0): 244 ng/mL; IC50 (HeLa.S3 cell [1]; Homo sapiens, HeLa S3, read-out: IC50 (ng/ml) 3.2×10^-5 d), compound of the present invention 3.2×10^-5 M; listed as 1): based on case where both compound and drug are 0): 274 ng/mL; IC50 (HeLa.S3 cell [1]; Homo sapiens, HeLa S3, read-out: IC50 (ng/ml) 10^-5 c), compound of the present invention 10^-5 M; listed as 1): based on case where both compound and drug are 0): 299 ng/mL; IC50 (HeLa.S3 cell [1]; Homo sapiens, HeLa S3, read-out: IC50 (ng/ml) 10^-5 c), compound of the present invention 10^-5 M; listed as 2): based on case where compound is 10^-5 M and drug is 0): 319 ng/mL; IC50 (HeLa.S3 cell [1]; Homo sapiens, HeLa S3, read-out: IC50 (ng/ml) 10^-6 b), compound of the present invention 10^-6 M; 2): based on case where compound is 10^-6 M and drug is 0): 291 ng/mL; IC50 (HeLa.S3 cell [1]; Homo sapiens, HeLa S3, read-out: IC50 (ng/ml) 10^-6 b), compound of the present invention 10^-6 M; listed as 1): based on case where both compound and drug are 0): 274 ng/mL
